Measurements published in patent US11091469B2, “Crystalline form of N-[5-(3,5-difluoro-benzyl)-1H-indazol-3-yl]-4-(4-methyl-piperazin-1-yl)-2-(tetrahydro-pyran-4-ylamino)-benzamide” (NERVIANO MEDICAL SCIENCES S.R.L., priority 2016, dated 2021).

Experiments:
[1] = Thermodynamic stability of crystalline forms; assay type: physicochemical; details: at temperature of about 40° C. or higher, vis-à-vis the three known crystalline forms (forms 1, 2, 3)
[2] = system: solid tumors with NTRK1, NTRK2, NTRK3, ROS1 or ALK genetic alterations which are fusions; assay: Phase I clinical trials of entrectinib in cancer patients: tumor response (RECIST); assay type: in vivo, human
From the text: (§1) A total of 18 patients across the Phase I studies met our expected Phase 2 eligibility criteria, which include the presence of NTRK1, NTRK2, NTRK3, ROS1 or ALK genetic alterations which are fusions, as opposed to other types of molecular alterations; the patient not having been previously treated with an ALK inhibitor or a ROS1 inhibitor and treatment at or above the recommended Phase II dose.

[3] = Phase I clinical trials of entrectinib in cancer patients: pharmacokinetic measurements
From the text: as §1

[4] = Phase I clinical trials of entrectinib in cancer patients: treatment-related adverse events, recommended Phase II dose; details: across the Phase I studies

thermodynamic stability [1]	pharmacokinetic measurements (exposure vs dose) ([3]; across the daily dosing regimens evaluated)	half-life ([3]; daily dosing regimens, patients)	Structure (SMILES)	response rate, defined as complete and partial responses by RECIST criteria ([2]; 18 patients who met the expected Phase 2 eligibility criteria across both Phase I studies, assessed by the clinical sites) [%]	additional patients remaining on study with stable disease ([2]; among the 18 patients meeting expected Phase 2 eligibility criteria) [patients]	durable responses (duration on study treatment) ([2]; nine responders remaining on study treatment)	responses in patients with NTRK1, NTRK2 or NTRK3 gene rearrangements ([2]; out of 4 patients, NSCLC, colorectal cancer, salivary gland cancer) [responses]	responses in patients with ALK gene rearrangements ([2]; out of 6 patients, two NSCLC and two other solid tumors) [responses]	responses in patients with ROS1 gene rearrangements ([2]; out of 8 patients, all NSCLC, including one complete response) [responses]	responses out of treated patients ([2]; out of 18 treated patients meeting expected Phase 2 eligibility criteria) [responses]	longest time on treatment of responders ([2]; responding patients with ROS1 gene rearrangements, NSCLC) [months]	Grade 3 treatment-related adverse event: cognitive impairment ([4]; 92 patients dosed) [patients]	Grade 3 treatment-related adverse event: diarrhea ([4]; 92 patients dosed) [patient]	Grade 3 treatment-related adverse event: fatigue ([4]; 92 patients dosed) [patients]	incidence of the most frequent treatment-related adverse events ([4]; fatigue, dysgeusia, paresthesia, nausea, myalgia) [%]
greater thermodynamic stability			CN1CCN(c2ccc(C(=O)Nc3n[nH]c4ccc(Cc5cc(F)cc(F)c5)cc34)c(NC3CCOCC3)c2)CC1 [Form 4, N-[5-(3,5-difluoro-benzyl)-1H-indazol-3-yl]-4-(4-methyl-piperazin-1-yl)-2-(tetrahydro-pyran-4-ylamino)-benzamide]												
	dose-proportional increases	compatible with once-daily dosing	CN1CCN(c2ccc(C(=O)Nc3n[nH]c4ccc(Cc5cc(F)cc(F)c5)cc34)c(NC3CCOCC3)c2)CC1 [Entrectinib, N-[5-(3,5-Difluoro-benzyl)-1H-indazol-3-yl]-4-(4-methyl-piperazin-1-yl)-2-(tetrahydro-pyran-4-ylamino)-benzamide]	72	3	up to 21 treatment cycles	3	4	6	13	21	2	1	4	> 10
